Source: ChEMBL document CHEMBL5625220, “Discovery of anti-neuroinflammatory agents from 1,4,5,6-tetrahydrobenzo[2,3]oxepino[4,5-d]pyrimidin-2-amine derivatives by regulating microglia polarization” (Eur J Med Chem, 2023)
Calls of active or inactive are those of the source. The calls are words filed in the database; no cut-off is given here.

Columns and labels:
[1] = Cytotoxicity against mouse BV-2 cells assessed as survival rate at 5 uM incubated for 24 hrs by CCK8 assay relative to control; assay type: toxicity, cell-based; settings: read-out: Survival
[2] = system: BV-2; assay: Anti-inflammatory activity in mouse BV-2 cells assessed as inhibition of LPS-induced TNF-alpha production at 5 uM preincubated with LPS for 2 hrs followed by compound addition and measured after 24 hrs by ELISA relative to control; assay type: functional
[3] = system: BV-2; assay: (§1) Anti-neuroinflammatory activity in mouse BV-2 cells assessed as microglial polarization into M2 phenotype by measuring decrease in iNOS expression preincubated with LPS for 2 hrs followed by compound addition and measured after 24 hrs by immunofluorescence staining based confocal microscopic analysis; assay type: functional, cell-based
[4] = system: BV-2; assay: Effect on caspase-1 expression in mouse BV-2 cells incubated for 24 hrs by Western blot analysis; assay type: functional, cell-based
[5] = system: BV-2; assay: Effect on NLRP3 expression in mouse BV-2 cells incubated for 24 hrs by Western blot analysis; assay type: functional, cell-based
[6] = system: BV-2; assay: Effect on IL-1beta expression in mouse BV-2 cells incubated for 24 hrs by ELISA; assay type: functional, cell-based
[7] = system: BV-2; assay: as §1, with “increase” for “decrease”, “CD206” for “iNOS”; assay type: functional, cell-based
[8] = system: BV-2; assay: Induction of microglial polarization to M2 phenotype in mouse BV-2 cells assessed as increase in number of M2 phenotype microglial cells incubated for 24 hrs by flow cytometric analysis; assay type: functional, cell-based
[9] = system: Mus musculus; assay: Anti-inflammatory activity in cuprizone fed C57BL/6 mouse model assessed as increase in CD206 expression in corpus callosum at 5 mg/kg, ip pretreated with cuprizone for 6 weeks followed by compound administration for 2 weeks by immunofluorescence staining based confocal microscopic analysis; assay type: functional, organism-based
[10] = system: BV-2; assay: Effect on IL-10 expression in mouse BV-2 cells incubated for 24 hrs by ELISA; assay type: functional, cell-based
[11] = system: Mus musculus; assay: Anti-inflammatory activity in cuprizone fed C57BL/6 mouse model assessed as decrease in iNOS expression in corpus callosum at 5 mg/kg, ip pretreated with cuprizone for 6 weeks followed by compound administration for 2 weeks by immunofluorescence staining based confocal microscopic analysis; assay type: functional, organism-based
[12] = system: BV-2; assay: Anti-neuroinflammatory activity in LPS-induced mouse BV-2 cells assessed as increase in Arg-1 labeled microglial cells preincubated with LPS for 2 hrs followed by compound addition and measured after 24 hrs by flow cytometric analysis; assay type: functional, cell-based
[13] = system: BV-2; assay: Effect on TNF-alpha expression in mouse BV-2 cells incubated for 24 hrs by ELISA; assay type: functional, cell-based
[14] = system: BV-2; assay: Anti-neuroinflammatory activity in LPS-induced mouse BV-2 cells assessed as decrease in IL-18 secretion preincubated with LPS for 2 hrs followed by compound addition and measured after 24 hrs by ELISA; assay type: functional, cell-based
[15] = system: BV-2; assay: Effect on ASC expression in mouse BV-2 cells incubated for 24 hrs by Western blot analysis; assay type: functional, cell-based
[16] = target: NACHT, LRR and PYD domains-containing protein 3 (Mus musculus) (UniProt Q8R4B8); assay: Inhibition of NLRP3 inflammasome formation in LPS-stimulated mouse BV-2 cells assessed as downregulation of ASC protein expression preincubated with LPS for 2 hrs followed by compound addition and measured after 24 hrs by Western blot analysis; assay type: cell-based
Chain of NACHT, LRR and PYD domains-containing protein 3 (Mus musculus) (Q8R4B8 whole entry, the tested form may be a part): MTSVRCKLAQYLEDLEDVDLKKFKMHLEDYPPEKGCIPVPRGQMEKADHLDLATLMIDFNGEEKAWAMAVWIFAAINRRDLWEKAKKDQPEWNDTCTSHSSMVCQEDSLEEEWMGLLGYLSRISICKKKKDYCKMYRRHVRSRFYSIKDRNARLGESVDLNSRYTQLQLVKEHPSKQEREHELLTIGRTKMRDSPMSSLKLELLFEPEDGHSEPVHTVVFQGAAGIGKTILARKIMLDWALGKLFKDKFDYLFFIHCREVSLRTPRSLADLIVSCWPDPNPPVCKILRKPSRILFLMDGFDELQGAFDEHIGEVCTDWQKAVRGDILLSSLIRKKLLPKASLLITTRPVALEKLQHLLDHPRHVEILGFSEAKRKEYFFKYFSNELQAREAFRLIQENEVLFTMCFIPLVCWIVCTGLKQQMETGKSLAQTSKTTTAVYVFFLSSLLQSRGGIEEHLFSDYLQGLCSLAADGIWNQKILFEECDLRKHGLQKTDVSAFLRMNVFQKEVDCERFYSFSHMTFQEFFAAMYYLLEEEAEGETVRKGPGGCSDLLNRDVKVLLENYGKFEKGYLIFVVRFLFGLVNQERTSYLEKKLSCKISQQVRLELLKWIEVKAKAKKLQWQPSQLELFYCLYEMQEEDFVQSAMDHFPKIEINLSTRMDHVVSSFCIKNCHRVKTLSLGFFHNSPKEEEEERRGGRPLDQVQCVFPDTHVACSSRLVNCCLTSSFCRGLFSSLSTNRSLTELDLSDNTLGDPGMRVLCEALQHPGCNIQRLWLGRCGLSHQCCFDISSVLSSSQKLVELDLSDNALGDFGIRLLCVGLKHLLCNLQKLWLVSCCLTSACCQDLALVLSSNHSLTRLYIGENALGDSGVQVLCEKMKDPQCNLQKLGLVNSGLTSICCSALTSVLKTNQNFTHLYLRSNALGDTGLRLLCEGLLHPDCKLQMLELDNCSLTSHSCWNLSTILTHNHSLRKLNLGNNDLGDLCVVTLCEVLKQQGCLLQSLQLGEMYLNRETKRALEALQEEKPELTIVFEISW

[17] = target: NACHT, LRR and PYD domains-containing protein 3 (Mus musculus) (UniProt Q8R4B8); assay: Inhibition of NLRP3 inflammasome formation in LPS-stimulated mouse BV-2 cells assessed as downregulation of caspase-1 protein expression preincubated with LPS for 2 hrs followed by compound addition and measured after 24 hrs by Western blot analysis; assay type: cell-based
[18] = system: BV-2; assay: Downregulation of PKM2 expression in LPS-stimulated mouse BV-2 cells preincubated with LPS for 2 hrs followed by compound addition and measured after 24 hrs by Western blot analysis; assay type: functional, cell-based
[19] = system: BV-2; assay: Downregulation of PKM2 expression in LPS-stimulated mouse BV-2 cells preincubated with LPS for 2 hrs followed by compound addition and measured after 24 hrs by immunofluorescence staining based confocal microscopic analysis; assay type: functional, cell-based
[20] = system: BV-2; assay: Anti-neuroinflammatory activity in LPS-induced mouse BV-2 cells assessed as increase in CD206 labeled microglial cells preincubated with LPS for 2 hrs followed by compound addition and measured after 24 hrs by flow cytometric analysis; assay type: functional, cell-based
[21] = target: NACHT, LRR and PYD domains-containing protein 3 (Mus musculus) (UniProt Q8R4B8); assay: Inhibition of NLRP3 inflammasome formation in LPS-stimulated mouse BV-2 cells assessed as downregulation of NLRP3 protein expression preincubated with LPS for 2 hrs followed by compound addition and measured after 24 hrs by Western blot analysis; assay type: cell-based
[22] = system: BV-2; assay: Anti-neuroinflammatory activity in LPS-induced mouse BV-2 cells assessed as decrease in IL-1beta secretion preincubated with LPS for 2 hrs followed by compound addition and measured after 24 hrs by ELISA; assay type: functional, cell-based
[23] = system: BV-2; assay: Anti-neuroinflammatory activity in LPS-induced mouse BV-2 cells assessed as decrease in iNOS labeled microglial cells preincubated with LPS for 2 hrs followed by compound addition and measured after 24 hrs by flow cytometric analysis; assay type: functional, cell-based
[24] = system: BV-2; assay: Anti-neuroinflammatory activity in LPS-induced mouse BV-2 cells assessed as increase in IL-10 secretion preincubated with LPS for 2 hrs followed by compound addition and measured after 24 hrs by ELISA; assay type: functional, cell-based
[25] = system: BV-2; assay: Effect on IL-18 expression in mouse BV-2 cells incubated for 24 hrs by ELISA; assay type: functional, cell-based
[26] = system: Mus musculus; assay: Anti-inflammatory activity in cuprizone fed C57BL/6 mouse model assessed as increase in remyelination in corpus callosum at 5 mg/kg, ip pretreated with cuprizone for 6 weeks followed by compound administration for 2 weeks by LFB staining based analysis; assay type: functional, organism-based
[27] = system: BV-2; assay: Anti-neuroinflammatory activity in LPS-induced mouse BV-2 cells assessed as decrease in TNF-alpha secretion preincubated with LPS for 2 hrs followed by compound addition and measured after 24 hrs by ELISA; assay type: functional, cell-based
[28] = system: BV-2; assay: Anti-neuroinflammatory activity in LPS-induced mouse BV-2 cells assessed as decrease in CD86 labeled microglial cells preincubated with LPS for 2 hrs followed by compound addition and measured after 24 hrs by flow cytometric analysis; assay type: functional, cell-based
[29] = system: BV-2; assay: Induction of microglial polarization to M2 phenotype in mouse BV-2 cells assessed as decrease in number of M1 phenotype microglial cells incubated for 24 hrs by flow cytometric analysis; assay type: functional, cell-based

For `COc1cc(OC)c2c(c1)OCC/C(=C\c1ccc(F)cc1C(F)(F)F)C2=O`, which viability at 24 h, 5 µM [1] is on record?
Its viability at 24 h, 5 µM is 114%.

And the inhibition at 5 µM [2]?
Its inhibition at 5 µM is 69.5%.

What does the source list for `COc1cc(OC)c2c(c1)OCCC1=C2NC(N)=NC1c1ccc(F)cc1C(F)(F)F` (configuration not stated)?
viability at 24 h, 5 µM [1]: 87.4%; inhibition at 5 µM [2]: 66.4%

What does the source list for `COc1cc(OC)c2c(c1)OCCC1=C2NC(N)=NC1c1c(F)cccc1C(F)(F)F` (configuration not stated)?
viability at 24 h, 5 µM [1]: 124%; inhibition at 5 µM [2]: 65.7%

Which results are given for `COc1cc(OC)c2c(c1)OCCC1=C2NC(N)=NC1c1cccc(F)c1` (configuration not stated)?
viability at 24 h, 5 µM [1]: 120%; inhibition at 5 µM [2]: 74.3%

For `COc1cc(OC)c2c(c1)OCCC1=C2NC(N)=NC1c1ccc(F)cc1` (configuration not stated), which viability at 24 h, 5 µM [1] is on record?
The viability at 24 h, 5 µM was 157%.

And the inhibition at 5 µM [2]?
Its inhibition at 5 µM is 56.8%.

With `COc1cc(OC)c2c(c1)OCC/C(=C\c1c(F)cccc1F)C2=O` as the compound, how does the viability at 24 h, 5 µM [1] read?
The viability at 24 h, 5 µM was 146%.

And the inhibition at 5 µM [2]?
The inhibition at 5 µM was 62.5%.

What does the source list for `COc1cc(OC)c2c(c1)OCCC1=C2NC(N)=NC1c1ccccc1C(F)(F)F` (configuration not stated)?
viability at 24 h, 5 µM [1]: 113%; inhibition at 5 µM [2]: 70.2%

For `COc1cc(OC)c2c(c1)OCC/C(=C\c1cc(F)ccc1F)C2=O`, which viability at 24 h, 5 µM [1] is on record?
The viability at 24 h, 5 µM was 168%.

And the inhibition at 5 µM [2]?
Its inhibition at 5 µM is 74.1%.

Which results are given for `COc1cc(OC)c2c(c1)OCCC1=C2NC(N)=NC1c1ccc(C(F)(F)F)cc1` (configuration not stated)?
viability at 24 h, 5 µM [1]: 150%; inhibition at 5 µM [2]: 72.1%

With `COc1cncc(-c2nc(N)nc3c2CCc2ccc(F)cc2-3)c1` as the compound, how does the viability at 24 h, 5 µM [1] read?
The viability at 24 h, 5 µM was 99.3%.

And the inhibition at 5 µM [2]?
Its inhibition at 5 µM is 62.9%.

Which viability at 24 h, 5 µM [1] does the source give for `COc1cc(OC)c2c(c1)OCCC1=C2NC(N)=NC1c1cccc(C(F)(F)F)c1F` (configuration not stated) here?
Its viability at 24 h, 5 µM is 111%.

What about the inhibition at 5 µM [2] of the same compound?
Its inhibition at 5 µM is 91.5%.

Which results are given for `COc1cc(OC)c2c(c1)OCCC1=C2NC(N)=NC1c1cc(F)ccc1F` (configuration not stated)?
viability at 24 h, 5 µM [1]: 156%; inhibition at 5 µM [2]: 73.5%

For `COc1cc(OC)c2c(c1)OCC/C(=C\c1ccc(C(F)(F)F)cc1)C2=O`, which viability at 24 h, 5 µM [1] is on record?
The viability at 24 h, 5 µM was 145%.

And the inhibition at 5 µM [2]?
The inhibition at 5 µM was 65.8%.

With `COc1cc(OC)c2c(c1)OCCC(C(O)c1cccc(C(F)(F)F)c1)C2=O` (configuration not stated) as the compound, how does the viability at 24 h, 5 µM [1] read?
The viability at 24 h, 5 µM was 150%.

And the inhibition at 5 µM [2]?
Its inhibition at 5 µM is 65.1%.

What does the source list for `COc1cc(OC)c2c(c1)OCCC1=C2NC(N)=NC1c1cc(C(F)(F)F)cc(C(F)(F)F)c1` (configuration not stated)?
Activity [3]: Active; Activity [4]: inactive; Activity [5]: inactive; Activity [6]: inactive; Activity [7]: Active; Activity [8]: Active; Activity [9]: Active; Activity [10]: inactive; Activity [11]: Active; Activity [12]: Active; Activity [13]: inactive; viability at 24 h, 5 µM [1]: 151%; Activity [14]: Active; Activity [15]: inactive; inhibition at 5 µM [2]: 94.5%; inhibition [16]: Active; inhibition [17]: Active; Activity [18]: Active; Activity [19]: Active; Activity [20]: Active; inhibition [21]: Active; Activity [22]: Active; Activity [23]: Active; Activity [24]: Active; Activity [25]: inactive; Activity [26]: Active; Activity [27]: Active; Activity [28]: Active; Activity [29]: inactive
